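Growth conditions: 96-well plates. Treatment: test compound, 48 hours, 5 concentrations. Analysis: linear interpolation between bracketing concentrations; unreached endpoints set to highest concentration. GI50 = concentration required for 50% inhibition of growth.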 Active and inactive are the calls of the source. No stated cut-off is given here; in the data, active = GI50 up to about 1.1 µM and inactive = higher.
Columns and labels:
Assay in all cases: growth of human tumour cells (NCI), 48 h
[1] = test system: HCC 2998
[2] = test system: IGROV-1
[3] = test system: NCI-H522
[4] = test system: SNB-19
[5] = test system: OVCAR-3
[6] = test system: SR
[7] = test system: HCT-116
[8] = test system: HCT-15
[9] = test system: MOLT-4
[10] = test system: U-251
[11] = test system: SK-MEL-5
[12] = test system: 786-0
[13] = test system: MDA-N
[14] = test system: HT-29
[15] = test system: MDA-MB-435
[16] = test system: Hs-578T
[17] = test system: MDA-MB-231
[18] = test system: UACC-62

SMILES | GI50 [1] | GI50 [2] | GI50 [3] | GI50 [4] | GI50 [5] | GI50 [6] | GI50 [7] | GI50 [8] [µM] | GI50 [9] | GI50 [10] | GI50 [11] | GI50 [12] | GI50 [13] | GI50 [14] | GI50 [15] | GI50 [16] | GI50 [17] | GI50 [18]
CC(C)(C)O/N=C/c1cc(NC(=S)c2ccccc2)ccc1Cl | 11.3 µM (inactive) | 12.1 µM (inactive) | 11.3 µM (inactive) | 22.4 µM (inactive) | 16.3 µM (inactive) | 15.1 µM (inactive) | 12.3 µM (inactive) | 15.1 | 8.71 µM (inactive) | 17 µM (inactive) | 21 µM (inactive) | 14.3 µM (inactive) | 14.2 µM (inactive) | 13.7 µM (inactive) | 27.2 µM (inactive) | 22.5 µM (inactive) | 21.3 µM (inactive) | 14.6 µM (inactive)
CCOC(=O)CCC(NC(=O)c1ccc(Nc2nc3ccccc3nc2C(=O)OCC)cc1)C(=O)OCC (stereo not drawn) | > 76 µM (inactive) | 3.54 µM (inactive) | 3.3 µM (inactive) | 3.94 µM (inactive) | 2.04 µM (inactive) | > 39.3 µM (inactive) | 2.95 µM (inactive) | 18.1 | > 100 µM (inactive) | 3.12 µM (inactive) | 27.8 µM (inactive) | 1.85 µM (inactive) | 3.89 µM (inactive) | 4.67 µM (inactive) | 3.91 µM (inactive) | 3.1 µM (inactive) | 9.62 µM (inactive) | 3.2 µM (inactive)
Cc1cn(C2CC(O)C(Cn3cc(Cn4ncc(=O)[nH]c4=O)nn3)O2)c(=O)[nH]c1=O (stereo not drawn) | > 100 µM (inactive) | > 100 µM (inactive) | > 100 µM (inactive) | > 100 µM (inactive) | > 100 µM (inactive) | > 100 µM (inactive) | > 100 µM (inactive) | > 100 | > 100 µM (inactive) | > 100 µM (inactive) | > 100 µM (inactive) | > 100 µM (inactive) | > 100 µM (inactive) | > 100 µM (inactive) | > 100 µM (inactive) | > 100 µM (inactive) | > 100 µM (inactive) | > 100 µM (inactive)
O=C(NCc1ccccc1)c1cc2ccccc2o/c1=N\c1ccccc1F | 23.1 µM (inactive) | 24 µM (inactive) | 22 µM (inactive) | 25.6 µM (inactive) | 46 µM (inactive) | 32.7 µM (inactive) | 23.4 µM (inactive) | 51.2 | > 100 µM (inactive) | 35.5 µM (inactive) | 19.1 µM (inactive) | 10.8 µM (inactive) | 34.8 µM (inactive) | 45.8 µM (inactive) | 26.3 µM (inactive) | 32.1 µM (inactive) | 17.6 µM (inactive) | 29.9 µM (inactive)
Cc1csc2nc3c(cnn3C)c(=S)n12 | > 100 µM (inactive) | > 100 µM (inactive) | 11 µM (inactive) | > 100 µM (inactive) | > 100 µM (inactive) | > 100 µM (inactive) | > 100 µM (inactive) | 71.4 | > 100 µM (inactive) | 95.3 µM (inactive) | > 100 µM (inactive) | > 100 µM (inactive) | > 100 µM (inactive) | 84.5 µM (inactive) | > 100 µM (inactive) | 12.8 µM (inactive) | > 10 µM (inactive) | > 100 µM (inactive)
O=C(NCCCNCCNC(=O)c1cc(-c2ccccc2)nc2ccccc12)c1cc(-c2ccccc2)nc2ccccc12 | 1.7 µM (inactive) | 1.95 µM (inactive) | 1.75 µM (inactive) | 1.87 µM (inactive) | 1.97 µM (inactive) | 2.75 µM (inactive) | 1.68 µM (inactive) | 1.52 | 2.09 µM (inactive) | 1.85 µM (inactive) | 1.64 µM (inactive) | 1.79 µM (inactive) | 1.87 µM (inactive) | 1.52 µM (inactive) | 1.72 µM (inactive) | 2.37 µM (inactive) | 1.86 µM (inactive) | 2.22 µM (inactive)
CSC1(SC)CCCCCCCCCCC1 | 20.4 µM (inactive) | 41.8 µM (inactive) | 16.3 µM (inactive) | 53.5 µM (inactive) | 27.8 µM (inactive) | 43.7 µM (inactive) | 17 µM (inactive) | 48.1 | 33.7 µM (inactive) | 32.4 µM (inactive) | 35.2 µM (inactive) | 37.1 µM (inactive) | 42.8 µM (inactive) | 31.7 µM (inactive) | 38.9 µM (inactive) | 43.1 µM (inactive) | 41.4 µM (inactive) | 46 µM (inactive)
O=c1c2ccccc2c2c1c1c3ccccc3c(=O)c1c1c3ccccc3c(=O)c21 | > 100 µM (inactive) | > 100 µM (inactive) | > 100 µM (inactive) | > 100 µM (inactive) | > 100 µM (inactive) | > 100 µM (inactive) | > 100 µM (inactive) | > 100 | > 100 µM (inactive) | > 100 µM (inactive) | > 100 µM (inactive) | > 100 µM (inactive) | > 100 µM (inactive) | > 100 µM (inactive) | > 100 µM (inactive) | > 100 µM (inactive) | > 100 µM (inactive) | > 100 µM (inactive)
C=CCc1cccc2cc(C(=O)NCc3ccccc3)c(=N)oc12 | 25.1 µM (inactive) | 24.9 µM (inactive) | 18.1 µM (inactive) | 29.9 µM (inactive) | 20.7 µM (inactive) | > 100 µM (inactive) | 24.2 µM (inactive) | 32.2 | > 100 µM (inactive) | 38.2 µM (inactive) | 25.5 µM (inactive) | 29.1 µM (inactive) | 41.4 µM (inactive) | 34.4 µM (inactive) | 25.8 µM (inactive) | 18.8 µM (inactive) | 30.6 µM (inactive) | 22.8 µM (inactive)
N#CC(c1ccccc1)N(CCc1ccccc1)C(=O)c1ccccc1 (stereo not drawn) | > 100 µM (inactive) | > 74 µM (inactive) | > 59.2 µM (inactive) | 26.2 µM (inactive) | > 100 µM (inactive) | > 100 µM (inactive) | > 74.8 µM (inactive) | > 100 | > 100 µM (inactive) | 52.4 µM (inactive) | > 100 µM (inactive) | 27.7 µM (inactive) | > 100 µM (inactive) | > 100 µM (inactive) | > 100 µM (inactive) | 26.2 µM (inactive) | 47.8 µM (inactive) | 51.2 µM (inactive)
COc1ccc(CCNC2=CC(=O)c3ncccc3C2=O)cc1OC | 1.94 µM (inactive) | 1.55 µM (inactive) | 2.11 µM (inactive) | 1.86 µM (inactive) | 0.514 µM (active) | 4.24 µM (inactive) | 2.51 µM (inactive) | 0.918 | 5.05 µM (inactive) | 0.863 µM (active) | 0.184 µM (active) | 3.31 µM (inactive) | 1.18 µM (inactive) | 2.12 µM (inactive) | 0.471 µM (active) | 1.19 µM (inactive) | 0.789 µM (active) | 0.435 µM (active)
COc1ccc([C@H]2CC(=O)C[C@H](c3ccc(OC)cc3)C23C(=O)c2ccccc2C3=O)cc1 | 8.55 µM (inactive) | 5.28 µM (inactive) | 3.16 µM (inactive) | 5.35 µM (inactive) | 2.97 µM (inactive) | 3.28 µM (inactive) | 4.46 µM (inactive) | 4.02 | 4.79 µM (inactive) | 4.24 µM (inactive) | 3.46 µM (inactive) | 5.57 µM (inactive) | 2.07 µM (inactive) | 3.46 µM (inactive) | 1.95 µM (inactive) | 4.78 µM (inactive) | 2.39 µM (inactive) | 4 µM (inactive)
COC(=O)c1ccccc1C1CN=NC12Cc1cccc(C)c1C2=O (stereo not drawn) | > 100 µM (inactive) | 59.8 µM (inactive) | 27.3 µM (inactive) | 70 µM (inactive) | 22.1 µM (inactive) | 94.4 µM (inactive) | 37.4 µM (inactive) | 46.5 | 32.8 µM (inactive) | 56 µM (inactive) | 34.4 µM (inactive) | 90.4 µM (inactive) | 46.7 µM (inactive) | 57.7 µM (inactive) | 37.4 µM (inactive) | 40.4 µM (inactive) | > 100 µM (inactive) | 34.7 µM (inactive)
COc1ccc(Nc2nc(N)c(C(=O)c3ccco3)s2)cc1 | 15.7 µM (inactive) | 10.7 µM (inactive) | 7.71 µM (inactive) | > 56.5 µM (inactive) | 20.6 µM (inactive) | 0.955 µM (active) | 9.23 µM (inactive) | 6.58 | 3.61 µM (inactive) | 40.4 µM (inactive) | 14.5 µM (inactive) | > 40 µM (inactive) | 4.11 µM (inactive) | 7.78 µM (inactive) | 3.15 µM (inactive) | 22.4 µM (inactive) | > 88.1 µM (inactive) | 45.8 µM (inactive)
CCOC(=O)c1cccc(/N=N/c2ncc(/C=C/C(=O)OC)[nH]2)c1 | 17.9 µM (inactive) | 20.6 µM (inactive) | 15.7 µM (inactive) | 34.4 µM (inactive) | 23.3 µM (inactive) | 4.12 µM (inactive) | 18.2 µM (inactive) | 9.59 | 6.97 µM (inactive) | 22.6 µM (inactive) | 10.8 µM (inactive) | 14.6 µM (inactive) | 15.7 µM (inactive) | 23.5 µM (inactive) | 28 µM (inactive) | 39.9 µM (inactive) | 36.7 µM (inactive) | 21.5 µM (inactive)
O=C1/C(=C/c2ccc([N+](=O)[O-])cc2)CNC/C1=C\c1ccc([N+](=O)[O-])cc1 | 5.62 µM (inactive) | 1.84 µM (inactive) | 2.52 µM (inactive) | 2.27 µM (inactive) | 2.45 µM (inactive) | 0.241 µM (active) | 0.63 µM (active) | 1.13 | 2.22 µM (inactive) | 0.469 µM (active) | 10.8 µM (inactive) | 1.13 µM (inactive) | 6.27 µM (inactive) | 1.41 µM (inactive) | 10.4 µM (inactive) | 4.36 µM (inactive) | 2.69 µM (inactive) | 12.3 µM (inactive)

Reference: ChEMBL document CHEMBL1201862, “PubChem BioAssay data set” (2004)
